As to `O=[N+]([O-])c1ccc(Cl)c(C(=S)Nc2ccc(Sc3cc(C(F)(F)F)cc(Cl)n3)cc2)c1` [Compound No. 7, N-(4-(6-chloro-4-trifluoromethyl-2-pyridylthio)phenyl)-2-chloro-5-nitrothiobenzamide], the melting point was in the range of 183 to 186 °C.
For `N#Cc1ccc(Cl)c(C(=S)Nc2ccc(Oc3ncc(C(F)(F)F)cc3Cl)c(-n3cccc3)c2)c1` [Compound No. 17, N-(4-(3-chloro-5-trifluoromethyl-2-pyridyloxy)-3-(1H-pyrrol-1-yl)phenyl)-2-chloro-5-cyanothiobenzamide] the value was 229 to 230 °C; for `FC(F)(F)c1cnc(Oc2ccc(NC(=S)c3cnc(Cl)cc3Cl)cc2)c(Cl)c1` [Compound No. 13, N-(4-(3-chloro-5-trifluoromethyl-2-pyridyloxy)phenyl)-4,6-dichlorothionicotinamide], 175 to 176 °C.
As for `O=[N+]([O-])c1ccc(F)c(C(=S)Nc2ccc(Oc3ncc(C(F)(F)F)cc3Cl)cc2F)c1` [Compound No. 12, N-(4-(3-chloro-5-trifluoromethyl-2-pyridyloxy)-2-fluorophenyl)-2-fluoro-5-nitrothiobenzamide], the figure is 146 to 147 °C.
For `COc1cc(OC)nc(OCCCNC(=S)c2cc([N+](=O)[O-])ccc2Cl)n1` [Compound No. 18, N-(3-(4,6-dimethoxy-2-pyrimidinyloxy)propyl)-2-chloro-5-nitrothiobenzamide] the value was 119 to 120 °C; for `CN(C)c1cc(C(F)(F)F)cc(OCCCNC(=S)c2cc([N+](=O)[O-])ccc2F)n1` [Compound No. 16, N-(3-(6-dimethylamino-4-trifluoromethyl-2-pyridyloxy)propyl)-2-fluoro-5-nitrothiobenzamide], 130 to 133 °C.
In the case of `O=[N+]([O-])c1ccc(Cl)c(C(=S)Nc2ccc(Oc3ncc(C(F)(F)F)cc3Cl)cc2)c1` [Compound No. 1, N-(4-(3-chloro-5-trifluoromethyl-2-pyridyloxy)phenyl)-2-chloro-5-nitrothiobenzamide], the melting point lay in the range of 186 to 187 °C.
As for `CN(C)c1cc(C(F)(F)F)cc(OCCCNC(=S)c2cc([N+](=O)[O-])ccc2Cl)n1` [Compound No. 8, N-(3-(6-dimethylamino-4-trifluoromethyl-2-pyridyloxy)propyl)-2-chloro-5-nitrothiobenzamide], the figure is 102 to 103 °C; as for `COc1cc(OC)nc(Oc2ccc(NC(=S)c3cc([N+](=O)[O-])ccc3Cl)cc2)n1` [Compound No. 19, N-(4-(4,6-dimethoxy-2-pyrimidinyloxy)phenyl)-2-chloro-5-nitrothiobenzamide], 220 to 222 °C; as for `O=[N+]([O-])c1ccc(Cl)c(C(=S)Nc2ccc(Oc3ncc(C(F)(F)F)cc3Cl)cc2F)c1` [Compound No. 11, N-(4-(3-chloro-5-trifluoromethyl-2-pyridyloxy)-2-fluorophenyl)-2-chloro-5-nitrothiobenzamide], 193 °C.
As for `O=[N+]([O-])c1ccc(Cl)c(C(=S)Nc2ccc(Oc3cc(C(F)(F)F)cc(Cl)n3)cc2)c1` [Compound No. 2, N-(4-(6-chloro-4-trifluoromethyl-2-pyridyloxy)phenyl)-2-chloro-5-nitrothiobenzamide], the figure is 186 to 187 °C.
For `O=[N+]([O-])c1ccc(Cl)c(C(=S)Nc2ccc(Sc3ncc(C(F)(F)F)cc3Cl)cc2)c1` [Compound No. 5, N-(4-(3-chloro-5-trifluoromethyl-2-pyridylthio)phenyl)-2-chloro-5-nitrothiobenzamide] the value was 72 to 73 °C; for `O=[N+]([O-])c1ccc(Cl)c(C(=S)NCCCOc2cc(C(F)(F)F)cc(N3CCSCC3)n2)c1` [Compound No. 4, N-(3-(6-thiomorpholino-4-trifluoromethyl-2-pyridyloxy)propyl)-2-chloro-5-nitrothiobenzamide], 132 to 133 °C.
The molecule `O=[N+]([O-])c1ccc(Cl)c(C(=S)Nc2ccc(Nc3ncc(C(F)(F)F)cc3Cl)cc2)c1` [Compound No. 6, N-(4-(3-chloro-5-trifluoromethyl-2-pyridylamino)phenyl)-2-chloro-5-nitrothiobenzamide] came in with a melting point of 199 to 200 °C.

These data come from patent publication US7632865B2, “Thioamides and salts thereof and cytokine production inhibitors containing both” (Ishihara Sangyo Kaisha, Ltd., priority 2004, dated 2009).
